Values of other authors, collected in article PMC4691889 (Genes & Development, 2015).

Tested on: NTMT1
Settings: inhibition of NTMT1, determined in previous studies; ref Richardson et al. 2015

IC50: 3.3 µM
SMILES: Nc1ncnc2c1ncn2[C@@H]1O[C@H](CSCC[C@H](N)C(=O)O)[C@@H](O)[C@H]1O [SAH, S-adenosyl-L-homocysteine]
